# Columns and labels:
# [1] = test system: Non-Obese Diabetic (NOD) mice; assay: Prevention of glucosuria / Juvenile (Type I, IDDM) Diabetes in NOD mice; format: in vivo, mouse; conditions: for onset of glucosuria: assayed at week 16, untreated controls 100% glucosuria, data not shown; for Healthy/Total* (healthy and well = sugar not detected in urine): female NOD mice
# Experimental: Juvenile (Type I, IDDM) Diabetes in Non-Obese Diabetic (NOD) Mice:
# Peptides Derived from Natural Casein:
# NOD mice are a commonly used model for research of autoimmune disease and human Juvenile Diabetes. Six week old female NOD mice received either one or two injections per week of 100 μg of peptides derived from natural casein, for a total of 5 or 11 treatments. Control mice received no treatment. The severity of disease was determined according to glucosuria, which was measured using Combi test sticks [Gross, D. J. et al. (1994), Diabetology, 37:1195]. Results were expressed as the percent of glucosuria-free mice in each sample over a 365-day period.
# Synthetic Peptides Derived from Casein:
# In another experiment, 6 week old female NOD mice received one injection per week of 100 μg of Synthetic peptides derived from casein for a total of 5 treatments. Control mice received no treatment. Results were expressed as the number of healthy mice in the various treated groups.
# [2] = test system: human Peripheral Blood Stem Cells (PBSC); assay: Natural Killer (NK) cell activity in cultured human PBSC (lysis of K562 target cells); format: cell-based
# Experimental: Stimulation of Proliferation of Natural Killer (NK) Cells:
# From human Peripheral Blood Stem Cells (PBSC): PBSC of G-CSF treated subjects were separated on a FICOLL gradient, washed twice with RPMI-1640 medium and seeded into 1.5 ml wells with or without peptides derived from natural casein or synthetic peptides derived from casein, as indicated, (0-500 μg per ml). Following two days incubation the cells were assayed for Natural Killer activity by measuring radioactivity released from ^35S-labeled K562 target cells (NEG-7Q9A, 185.00 MBq, 2.00 mCi EASYTAGth Methionine, L-[^35S] 43.48 TBq per mmol, 1175.0 Ci per mmol, 0.488 ml, Boston USA). Two concentrations of effector cells ([…] cells per well) were incubated with 5×10^3 target cells per well (effector:target cell ratios of 50:1 and 100:1, respectively) in U-bottomed 96 well tissue culture plates. The cells were incubated for 5 hours at 37° C. in 5% CO2, 95% air and precipitated by 5 minutes centrifugation at 1000 rpm. ^35S release was measured in 50 μl samples of the supernatant liquid.
# HIV-1IIIB = assay: Inhibition of HIV-1 infection of CEM lymphocytes (cell counts, P24 antigen assay); format: cell-based; conditions: for HIV-1 infection level, P24 antigen: untreated control 0.52
# Experimental: Inhibition of in vitro HIV infection of human lymphocyte cells:
# Peptides: Peptides (either peptides derived from natural casein or synthetic peptides derived from casein (1-25 amino acids in length, see table 3) supplied as lyophilized powder were resuspended in RPMI complete medium and added to cell cultures at a final concentrations of 50 to 1000 μg per ml.
# Cells: Several types of freshly isolated human cells (primary cells) and cell lines are known to be susceptible to in vitro HIV-1 infection, although essentially any cell displaying even low surface levels of the CD4 molecule can be considered a potential target for HIV-1 infection. Two commonly used human cell lines which are highly sensitive for HIV-1 infection were chosen, CEM and Sup-T1.
# CEM is a human T4-lymphoblastoid cell line initially derived by G. E. Foley et al. [(1965), Cancer 18:522] from peripheral blood buffy coat of a person with acute lymphoblastic leukemia. These cells were continuously maintained in suspension in medium, and have been used widely for analysis of infectivity, antiviral agents and neutralizing antibodies.
# Virus: The HIV virus strain employed was HIV-1IIIB, originally designated HTLV-IIIB. Concentrated culture fluids of peripheral blood from several patients with AIDS or related diseases were used to establish a permanent productive infection in H-9 cells. This subtype B virus has high capacity to replicate in human T-cell lines. Viral titer was 5.38 ng per ml in stock solution.
# HIV-1 P24 antigen capture assay: An HIV-1 P24 Antigen capture assay kit employed was designed to quantitate the HIV-1 P24 core antigen, which is proportionally related to the degree of viral production in cells. This kit was purchased from the AIDS Vaccine program of the SAIC-NCI-Frederick Cancer Research Institute, P.O. Box B, Frederick, Md. 21702, USA and included 96 well plates coated with monoclonal antibody to HIV-1 P24, primary antibody-rabbit anti-HIV P24 serum, secondary antibody-Goat anti-rabbit-IgG (H+ L) peroxidase conjugated antibody, TMB peroxidase substrate system and lysed HIV-1 P24 standard. The HIV-1 P24 antigen capture assay was analyzed by Organon-Technica ELISA reader at 450 nm with a reference at 650 nm.
# HIV-1 P24 antigen capture ELISA: HIV infection was measured with an indirect enzyme immunoassay which detects HIV-1 P24 core antigens in tissue culture media. Tissue culture supernatant was reacted with primary rabbit anti-HIV-1 P24 antigen and visualized by peroxidase conjugated goat anti rabbit IgG. The reaction was terminated by adding 4N H2SO4, wherein the intensity of the color developed is proportional to the amount of HIV-1 antigen present in the tissue culture supernatant.
# HIV infection of human cultured CD4+ cells: The cells (CEM, Sup-T1) were preincubated with several increasing concentrations of peptides derived from natural casein (50-1000 μg per ml) or synthetic peptides derived from casein (10-500 μg per ml) for 3, 24 (for synthetic and natural peptides) and 48 (only for natural peptides) hours and HIV-1IIIB (45 μg per ml final concentration) was added to each well thereafter. HIV-1IIIB was preincubated with the peptides for 3 hours and then added to cells (5000 cells/well) in tissue culture plates. Controls were IF (Infected, cells cultured with HIV-1 and without peptides), UIF (Uninfected, cells cultured without HIV-1 and without peptides) and UIF+Ch (Uninfected+peptides derived from natural casein, cells cultured in the presence of peptides derived from natural casein {50-1000 μg per ml}) to test the effect of peptides derived from natural casein and synthetic peptides derived from casein on cell viability and growth. Cells were counted for viability and proliferation rate on day 7, 10 and day 14 post infection (the day of P24 antigen culture supernatant harvest). Cells and tissue culture supernatants (media) were harvested and lysed immediately in 1/10 volume of 10% Triton X-100. […]
# [3] = test system: murine primary bone marrow cells; assay: Multipotential colonies (CFU-GEMM) from murine bone marrow cells, colony and differential counts; format: cell-based, mouse; conditions: for megakaryocyte formation and development: 8 days treatment; for macrophages, % of total cell count: approximately 17% in unincubated controls
# Experimental: Stimulation of Hematopoiesis from Bone Marrow (BM) Cells in Culture:
# Proliferation of megakaryocytes in multipotential colonies (CFU-GEMM) from murine Bone Marrow cells: Primary bone marrow cells (1×10^5 per ml) from 8-12 week-old C3H/HeJ mice were grown in serum-free methyl cellulose-IMDM medium for 8-9 days at 5% CO2, 95% air, at 37° C. The medium, appropriate for the growth of multipotential colonies (CFU-GEMM), contained 1% BSA (Sigma), 10^−4 M thioglycerol (Sigma), 2.8×10^−4 M human transferrin (TF, Biological industries, Israel), 10% WEHI-CM as a source of IL-3 and 2 units per ml erythropoietin (rhEPO, R & D Systems, Minneapolis). Colonies were scored after 8-9 days using an Olympus dark field microscope. They were picked with a micropipette, cytocentrifuged and stained with May-Grunwald-Giemsa for differential counts. At least 700 cells were counted for each preparation. […]
# Proliferation of Macrophage cells in CFU-GEMM: Multipotent (CFU-GEMM colonies grown from primary bone marrow cells as described for the assay of megakaryocyte proliferation above were collected, stained and counted for macrophage cells. At least 700 cells were counted for each preparation.
# Proliferation of Red Blood Cells in CFU-GEMM: Multipotent (CFU-GEMM) colonies grown from primary bone marrow cells as described for the assay of megakaryocyte proliferation above were collected, stained and counted for red blood cells. At least 700 cells were counted for each preparation. […]
# [4] = test system: lethally irradiated, bone marrow-reconstituted mice; assay: Leukocyte and platelet reconstitution in bone marrow transplant recipient mice; format: in vivo, mouse; conditions: for platelet counts: 800 cGy, 100 μg per mouse i.p. on days 4-7; for peripheral white blood cell counts: BALB/c, 600 cGy, 1 mg per mouse intraperitoneal
# Experimental: Leukocyte and platelet reconstitution in bone marrow transplant recipient mice: BALB/c mice were lethally irradiated at a source to skin distance of 70 cm, dosage of 50 cGy per minute, for a total of 600 cGy. The irradiated mice were […] casein, synthetic peptides derived from casein (13-26 amino acids, see Table 3 above), or human serum albumin (controls), following a double-blinded protocol. Leukocyte reconstitution was determined according to cell count in peripheral blood collected at indicated intervals from 6 to 12 days post treatment. Platelet reconstitution was determined by cell count in blood collected from the retro orbital plexus, into heparinized capillaries, at indicated intervals from day 6 to day 15 post treatment.
# In an additional series of experiments, CBA mice were lethally irradiated (900 cGy), reconstituted and treated with peptides derived from natural casein or human serum albumin as described above. Platelet reconstitution was assayed as mentioned above.
# In a third series of experiments, the mice were irradiated (800 cGy), reconstituted and injected intraperitoneally with 100 μg synthetic peptides derived from casein (peptides 3a and 4P, representing the first 6 and 12 amino acids of the N terminus of αS1 casein, respectively—see Table 3 above) daily, on days 4, 5, 6 and 7 post-transplantation. Platelet reconstitution was assayed at 10 and 12 days post-transplantation.
# [5] = test system: Non-Obese Diabetic (NOD) mice; assay: Intraperitoneal Glucose Tolerance Test (IPGTT) in NOD mice; format: in vivo, mouse; design: IPGT TEST 0 min. (pre-load), plasma glucose: unit not given here; conditions: individual healthy NOD mice, 25 weeks after peptides
# Experimental: Intraperitoneal Glucose Tolerance Test (IPGTT):
# The glucose tolerance test is the definitive method for investigating glucose metabolism and diabetic tendencies in mammals. Twenty five (25) weeks after receiving Synthetic peptides derived from casein, response to a glucose load was assessed with an intraperitoneal glucose tolerance test. Glucose injection consisted of 1 g/kg body weight. Glycemic values were determined from blood drawn prior to test (0 minutes) and 60 minutes after loading.
# [6] = 12 days post transplantation, controls 676 (4P) and 461 (3a)
# [7] = 100 μg once weekly for 5 weeks, evaluated after 25 weeks
substance,measurement,setting,value
RPK [1P],onset of glucosuria,[1],effectively prevented
same,effect on NK activity in PBSC cultures from healthy human donors,[2],No significant effect
same,patients (of 5 tested) responding,[2]; 25 μg/ml peptide concentration,3
same,patients (of 5 tested) responding,[2]; 100 μg/ml peptide concentration,1
same,patients (of 5 tested) responding,[2]; 250 μg/ml peptide concentration,1
same,lymphocyte cell numbers,"HIV-1IIIB; 100 μg per ml, 3 hours pretreatment, infected control 1.06×10^6",1.29 ×10^6
same,"HIV-1 infection level, P24 antigen","HIV-1IIIB; 100 μg/ml, 7 days post infection",0.17 ng P24 Antigen/ml
same,lymphocyte cell numbers,"HIV-1IIIB; 500 μg per ml, 3 hours pretreatment, infected control 1.06×10^6",2.01 ×10^6
same,"HIV-1 infection level, P24 antigen","HIV-1IIIB; 500 μg/ml, 7 days post infection",0.14 ng P24 Antigen/ml
same,resistance of CEM cells to HIV-1 infection (in words),HIV-1IIIB; 3 hours pretreatment,significant degree of resistance to infection
RPKH [2P],onset of glucosuria,[1],effectively prevented
same,"red blood cells, % of total cell count",[3]; 53% in unincubated controls,71%
RPKHPI [4P],megakaryocyte formation and development,[3],significant increase
same,increase of platelet counts over untreated controls,[4]; 12 days post transplantation,29%
same,platelet counts,[4]; [6],872000 mL⁻¹
same,cell counts,"HIV-1IIIB; 25 μg per ml, 3 hours pretreatment, infected control 1.06×10^6",1.26 ×10^6
same,cell numbers,"HIV-1IIIB; 250 μg per ml, 3 hours preincubation, infected control 1.06×10^6",1.59 ×10^6
same,resistance of CEM cells to HIV-1 infection (in words),HIV-1IIIB; 3 hours pretreatment,significant effect on the susceptibility
same,"viral particles by HIV-P24 antigen assay vs untreated, infected control",HIV-1IIIB; 7 days post infection,dose dependent reduction
RPKHPIK [5P],"macrophages, % of total cell count",[3],~30%
RPKHPIKH [Y],Healthy/Total* (healthy and well = sugar not detected in urine),[1]; [7],1/5
RPKHPIKHQG [1a],Healthy/Total* (healthy and well = sugar not detected in urine),[1]; [7],1/5
same,"IPGT TEST 0 min. (pre-load), plasma glucose",[5],88
RPKHPIKHQGLP [3a],prevention of glucosuria (in words),[1]; [7],highly effective
same,Healthy/Total* (healthy and well = sugar not detected in urine),[1]; [7],3/5
same,megakaryocyte formation and development,[3],significant increase
same,increase of platelet counts over untreated controls,[4]; 10 days post transplantation,up to 35.5%
same,platelet counts,"[4]; 10 days post transplantation, control 169",229000 mL⁻¹
same,increase of platelet counts over untreated controls,[4]; 12 days post transplantation,up to 13.5%
same,platelet counts,[4]; [6],622000 mL⁻¹
RPKHPIKHQGLPQ [A],Healthy/Total* (healthy and well = sugar not detected in urine),[1]; [7],2/5
same,peripheral white blood cell counts,"[4]; day 10, albumin control 16.7",17.2 ×10^6 cells per dl
same,peripheral white blood cell counts,"[4]; day 12, albumin control 46.4",65.4 ×10^6 cells per dl
RPKHPIKHQGLPQE [B],Healthy/Total* (healthy and well = sugar not detected in urine),[1]; [7],2/5
same,"IPGT TEST 0 min. (pre-load), plasma glucose",[5],130
same,"IPGT TEST 60 min. post load, plasma glucose",[5]; glucose 1 g/kg i.p.,97 mmol/L
RPKHPIKHQGLPQEVL [D],Healthy/Total* (healthy and well = sugar not detected in urine),[1]; [7],2/5
same,"macrophages, % of total cell count",[3],~30%
RPKHPIKHQGLPQEVLN,megakaryocyte formation and development,[3],significant increase
same,peripheral white blood cell counts,"[4]; day 10, albumin control 16.7",27.4 ×10^6 cells per dl
same,peripheral white blood cell counts,"[4]; day 12, albumin control 46.4",52.0 ×10^6 cells per dl
RPKHPIKHQGLPQEVLNE [F],megakaryocyte formation and development,[3],significant increase
RPKHPIKHQGLPQEVLNEN,megakaryocyte formation and development,[3],significant increase
RPKHPIKHQGLPQEVLNENL,megakaryocyte formation and development,[3],significant increase
RPKHPIKHQGLPQEVLNENLL,Healthy/Total* (healthy and well = sugar not detected in urine),[1]; [7],2/5
same,megakaryocyte formation and development,[3],significant increase
RPKHPIKHQGLPQEVLNENLLR [J],Healthy/Total* (healthy and well = sugar not detected in urine),[1]; [7],3/5
RPKHPIKHQGLPQEVLNENLLRF,Healthy/Total* (healthy and well = sugar not detected in urine),[1]; [7],2/5
same,"macrophages, % of total cell count",[3],~30%
RPKHPIKHQGLPQEVLNENLLRFF,megakaryocyte formation and development,[3],significant increase

# Reference: US7741274B2, “Casein derived peptides and uses thereof in therapy” (priority 2000, dated 2010)
